From patent US20100267561A1, “HERBICIDAL PYRIDAZINONE DERIVATIVES” (priority 2007, published 2010)

Legend:
Type in all cases: in vivo
[1] = tested on: spring wheat (Triticum aestivum); assay: Test C pre-/postemergence plant response
Method in brief: (§1)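 Plant response was judged by eye against untreated controls following 15 to 25 days in a controlled growth environment, using 0 for no effect and 100 for complete control. Treatments were made both preemergence and postemergence, the latter on plants of 1- to 4-leaf stage.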

canola (Brassica rapa) = assay: Test C pre-/postemergence plant response
Method in brief: as §1

[2] = tested on: quackgrass (Elytrigia repens); assay: Test E pre-/postemergence plant response; conditions: scale 0 to 100
Description: (§2) Seeds of plant species selected from bermudagrass (Cynodon dactylon), Surinam grass (Brachiaria decumbens), large crabgrass (Digitaria sanguinalis), green foxtail (Setaria viridis), goosegrass (Eleusine indica), johnsongrass (Sorghum halepense), kochia (Kochia scoparia), pitted morningglory (Ipomoea lacunosa), purple nutsedge (Cyperus rotundus), common ragweed (Ambrosia elation), black mustard (Brassica nigra), guineagrass (Panicum maximum), dallisgrass (Paspalum dilatatum), barnyardgrass (Echinochloa crus-galli), southern (S.) sandbur (Cenchrus echinatus), common sowthistle (Sonchus oleraceous), prickly sida (Sida spinosa), Italian ryegrass (Lolium multiflorum), common purslane (Portulaca oleracea), broadleaf signalgrass (Brachiaria platyphylla), common groundsel (Senecio vulgaris), common chickweed (Stellaria media), Virginia (V.) dayflower (Commelina virginica), tropical (T.) spiderwort (Commelina benghalensis), annual bluegrass (Poa annua), naked crabgrass (Digitaria nuda), itchgrass (Rottboellia cochinchinensis), quackgrass (Elytrigia repens), Canada horseweed (Conyza canadensis), field bindweed (Convolvulus arvensis), spanishneedles (Bidens bipinnata), common mallow (Malva sylvestris) and Russian thistle (Salsola kali) were planted and treated preemergence with test chemicals formulated in a non-phytotoxic solvent mixture which included a surfactant. At the same time, plants selected from these weed species were treated with postemergence applications of some of the test chemicals formulated in the same manner. Plants ranged in height from 2 to 18 cm (1- to 4-leaf stage) for postemergence treatments.
(§3) Treated plants and controls were maintained in a greenhouse for 14 to 21 days, after which time all species were compared to controls and visually evaluated. Plant response ratings, summarized in Table E, are based on a scale of 0 to 100 where 0 is no effect and 100 is complete control. A dash (-) response means no test result.

[3] = tested on: bermudagrass (Cynodon dactylon); assay: Test E pre-/postemergence plant response; conditions: scale 0 to 100
Description: as §2, §3

[4] = tested on: pitted morningglory (Ipomoea lacunosa); assay: Test E pre-/postemergence plant response; conditions: scale 0 to 100
Description: as §2, §3

[5] = tested on: broadleaf signalgrass (Brachiaria platyphylla); assay: Test E pre-/postemergence plant response; conditions: scale 0 to 100
Description: as §2, §3

[6] = tested on: goosegrass (Eleusine indica); assay: Test E pre-/postemergence plant response; conditions: scale 0 to 100
Description: as §2, §3

[7] = tested on: black mustard (Brassica nigra); assay: Test E pre-/postemergence plant response; conditions: scale 0 to 100
Description: as §2, §3

[8] = tested on: large crabgrass (Digitaria sanguinalis); assay: Test E pre-/postemergence plant response; conditions: scale 0 to 100
Description: as §2, §3

[9] = Postemergence, 8 g ai/ha, scale 0 to 100, 0 no effect, 100 complete control
[10] = Postemergence, 16 g ai/ha, scale 0 to 100, 0 no effect, 100 complete control
[11] = Postemergence, 31 g ai/ha, scale 0 to 100, 0 no effect, 100 complete control
[12] = Postemergence, 62 g ai/ha, scale 0 to 100, 0 no effect, 100 complete control
[13] = Preemergence, 8 g ai/ha, scale 0 to 100 (0 no effect, 100 complete control)
[14] = Preemergence, 16 g ai/ha, scale 0 to 100 (0 no effect, 100 complete control)
[15] = Preemergence, 31 g ai/ha, scale 0 to 100 (0 no effect, 100 complete control)
[16] = Preemergence, 62 g ai/ha, scale 0 to 100, 0 no effect, 100 complete control

CCCc1cc(-c2ccc(Cl)cc2)nn1-c1c(O)cnn(C)c1=O [Compound 43]
Plant response rating, Wheat, Spring [1, 9]: 0
Plant response rating, Wheat, Spring [1, 10]: 15
Plant response rating, Wheat, Spring [1, 11]: 60
Plant response rating, Wheat, Spring [1, 12]: 90
Plant response rating, Wheat, Spring [1, 13]: 0
Plant response rating, Wheat, Spring [1, 14]: 0
Plant response rating, Wheat, Spring [1, 15]: 30
Plant response rating, Wheat, Spring [1, 16]: 65
Plant response rating, Canola (canola (Brassica rapa); [9]): 0
Plant response rating, Canola (canola (Brassica rapa); [10]): 0
Plant response rating, Canola (canola (Brassica rapa); [11]): 0
Plant response rating, Canola (canola (Brassica rapa); [12]): 0
Plant response rating, Canola (canola (Brassica rapa); [13]): 0
Plant response rating, Canola (canola (Brassica rapa); [15]): 0
Plant response rating, Canola (canola (Brassica rapa); [16]): 0
Plant response rating, Quackgrass ([2]; 16 g ai/ha, Preemergence): 70
Plant response rating, Quackgrass ([2]; 31 g ai/ha, Preemergence): 80
Plant response rating, Quackgrass ([2]; 62 g ai/ha, Preemergence): 95
Plant response rating, Quackgrass ([2]; Postemergence, 8 g ai/ha): 0
Plant response rating, Quackgrass ([2]; Postemergence, 16 g ai/ha): 0
Plant response rating, Quackgrass ([2]; Postemergence, 31 g ai/ha): 20
Plant response rating, Quackgrass ([2]; Postemergence, 62 g ai/ha): 75
Plant response rating, Bermudagrass ([3]; 16 g ai/ha, Preemergence): 30
Plant response rating, Bermudagrass ([3]; 31 g ai/ha, Preemergence): 70
Plant response rating, Bermudagrass ([3]; 62 g ai/ha, Preemergence): 85
Plant response rating, Bermudagrass ([3]; Postemergence, 8 g ai/ha): 0
Plant response rating, Bermudagrass ([3]; Postemergence, 16 g ai/ha): 20
Plant response rating, Bermudagrass ([3]; Postemergence, 31 g ai/ha): 20
Plant response rating, Bermudagrass ([3]; Postemergence, 62 g ai/ha): 20
Plant response rating, Morningglory ([4]; 16 g ai/ha, Preemergence): 0
Plant response rating, Morningglory ([4]; 31 g ai/ha, Preemergence): 20
Plant response rating, Morningglory ([4]; 62 g ai/ha, Preemergence): 30
Plant response rating, Morningglory ([4]; Postemergence, 8 g ai/ha): 0
Plant response rating, Morningglory ([4]; Postemergence, 16 g ai/ha): 0
Plant response rating, Morningglory ([4]; Postemergence, 31 g ai/ha): 0
Plant response rating, Morningglory ([4]; Postemergence, 62 g ai/ha): 0
Plant response rating, Signalgrass ([5]; 16 g ai/ha, Preemergence): 60
Plant response rating, Signalgrass ([5]; 31 g ai/ha, Preemergence): 100
Plant response rating, Signalgrass ([5]; Postemergence, 8 g ai/ha): 80
Plant response rating, Signalgrass ([5]; Postemergence, 16 g ai/ha): 80
Plant response rating, Signalgrass ([5]; Postemergence, 31 g ai/ha): 95
Plant response rating, Signalgrass ([5]; Postemergence, 62 g ai/ha): 98
Plant response rating, Goosegrass ([6]; 16 g ai/ha, Preemergence): 65
Plant response rating, Goosegrass ([6]; 31 g ai/ha, Preemergence): 95
Plant response rating, Goosegrass ([6]; 62 g ai/ha, Preemergence): 98
Plant response rating, Goosegrass ([6]; Postemergence, 8 g ai/ha): 20
Plant response rating, Goosegrass ([6]; Postemergence, 16 g ai/ha): 75
Plant response rating, Goosegrass ([6]; Postemergence, 31 g ai/ha): 75
Plant response rating, Goosegrass ([6]; Postemergence, 62 g ai/ha): 90
Plant response rating, Mustard, Black ([7]; 16 g ai/ha, Preemergence): 0
Plant response rating, Mustard, Black ([7]; 31 g ai/ha, Preemergence): 0
Plant response rating, Mustard, Black ([7]; 62 g ai/ha, Preemergence): 0
Plant response rating, Mustard, Black ([7]; Postemergence, 8 g ai/ha): 0
Plant response rating, Mustard, Black ([7]; Postemergence, 16 g ai/ha): 0
Plant response rating, Mustard, Black ([7]; Postemergence, 31 g ai/ha): 0
Plant response rating, Mustard, Black ([7]; Postemergence, 62 g ai/ha): 0
Plant response rating, Crabgrass, Large ([8]; 16 g ai/ha, Preemergence): 0
Plant response rating, Crabgrass, Large ([8]; 31 g ai/ha, Preemergence): 70
Plant response rating, Crabgrass, Large ([8]; 62 g ai/ha, Preemergence): 80
Plant response rating, Crabgrass, Large ([8]; Postemergence, 8 g ai/ha): 30
Plant response rating, Crabgrass, Large ([8]; Postemergence, 16 g ai/ha): 60
Plant response rating, Crabgrass, Large ([8]; Postemergence, 31 g ai/ha): 80
Plant response rating, Crabgrass, Large ([8]; Postemergence, 62 g ai/ha): 80

CCOC(=O)Oc1cnn(C)c(=O)c1-n1nc(-c2ccc(Cl)cc2)cc1C [Compound 53]
Plant response rating, Wheat, Spring [1, 9]: 5
Plant response rating, Wheat, Spring [1, 10]: 50
Plant response rating, Wheat, Spring [1, 11]: 80
Plant response rating, Wheat, Spring [1, 12]: 98
Plant response rating, Wheat, Spring [1, 13]: 0
Plant response rating, Wheat, Spring [1, 14]: 20
Plant response rating, Wheat, Spring [1, 15]: 85
Plant response rating, Wheat, Spring [1, 16]: 85
Plant response rating, Canola (canola (Brassica rapa); [9]): 0
Plant response rating, Canola (canola (Brassica rapa); [10]): 0
Plant response rating, Canola (canola (Brassica rapa); [11]): 0
Plant response rating, Canola (canola (Brassica rapa); [12]): 0
Plant response rating, Canola (canola (Brassica rapa); [16]): 0
Plant response rating, Quackgrass ([2]; 16 g ai/ha, Preemergence): 35
Plant response rating, Quackgrass ([2]; 31 g ai/ha, Preemergence): 65
Plant response rating, Quackgrass ([2]; 62 g ai/ha, Preemergence): 70
Plant response rating, Quackgrass ([2]; Postemergence, 8 g ai/ha): 0
Plant response rating, Quackgrass ([2]; Postemergence, 16 g ai/ha): 0
Plant response rating, Quackgrass ([2]; Postemergence, 31 g ai/ha): 0
Plant response rating, Quackgrass ([2]; Postemergence, 62 g ai/ha): 30
Plant response rating, Bermudagrass ([3]; 16 g ai/ha, Preemergence): 80
Plant response rating, Bermudagrass ([3]; 31 g ai/ha, Preemergence): 98
Plant response rating, Bermudagrass ([3]; 62 g ai/ha, Preemergence): 98
Plant response rating, Bermudagrass ([3]; Postemergence, 8 g ai/ha): 50
Plant response rating, Bermudagrass ([3]; Postemergence, 16 g ai/ha): 70
Plant response rating, Bermudagrass ([3]; Postemergence, 31 g ai/ha): 80
Plant response rating, Bermudagrass ([3]; Postemergence, 62 g ai/ha): 98
Plant response rating, Morningglory ([4]; 16 g ai/ha, Preemergence): 0
Plant response rating, Morningglory ([4]; 31 g ai/ha, Preemergence): 0
Plant response rating, Morningglory ([4]; 62 g ai/ha, Preemergence): 35
Plant response rating, Morningglory ([4]; Postemergence, 8 g ai/ha): 0
Plant response rating, Morningglory ([4]; Postemergence, 16 g ai/ha): 0
Plant response rating, Morningglory ([4]; Postemergence, 31 g ai/ha): 0
Plant response rating, Morningglory ([4]; Postemergence, 62 g ai/ha): 30
Plant response rating, Signalgrass ([5]; 16 g ai/ha, Preemergence): 40
Plant response rating, Signalgrass ([5]; 31 g ai/ha, Preemergence): 98
Plant response rating, Signalgrass ([5]; 62 g ai/ha, Preemergence): 98
Plant response rating, Signalgrass ([5]; Postemergence, 8 g ai/ha): 90
Plant response rating, Signalgrass ([5]; Postemergence, 16 g ai/ha): 95
Plant response rating, Signalgrass ([5]; Postemergence, 31 g ai/ha): 95
Plant response rating, Signalgrass ([5]; Postemergence, 62 g ai/ha): 100
Plant response rating, Goosegrass ([6]; 16 g ai/ha, Preemergence): 80
Plant response rating, Goosegrass ([6]; 31 g ai/ha, Preemergence): 100
Plant response rating, Goosegrass ([6]; 62 g ai/ha, Preemergence): 100
Plant response rating, Goosegrass ([6]; Postemergence, 8 g ai/ha): 20
Plant response rating, Goosegrass ([6]; Postemergence, 16 g ai/ha): 65
Plant response rating, Goosegrass ([6]; Postemergence, 31 g ai/ha): 80
Plant response rating, Goosegrass ([6]; Postemergence, 62 g ai/ha): 95
Plant response rating, Mustard, Black ([7]; 16 g ai/ha, Preemergence): 0
Plant response rating, Mustard, Black ([7]; 31 g ai/ha, Preemergence): 0
Plant response rating, Mustard, Black ([7]; 62 g ai/ha, Preemergence): 25
Plant response rating, Mustard, Black ([7]; Postemergence, 8 g ai/ha): 0
Plant response rating, Mustard, Black ([7]; Postemergence, 16 g ai/ha): 0
Plant response rating, Mustard, Black ([7]; Postemergence, 31 g ai/ha): 0
Plant response rating, Mustard, Black ([7]; Postemergence, 62 g ai/ha): 0
Plant response rating, Crabgrass, Large ([8]; 16 g ai/ha, Preemergence): 40
Plant response rating, Crabgrass, Large ([8]; 31 g ai/ha, Preemergence): 95
Plant response rating, Crabgrass, Large ([8]; 62 g ai/ha, Preemergence): 100
Plant response rating, Crabgrass, Large ([8]; Postemergence, 8 g ai/ha): 35
Plant response rating, Crabgrass, Large ([8]; Postemergence, 16 g ai/ha): 95
Plant response rating, Crabgrass, Large ([8]; Postemergence, 31 g ai/ha): 95
Plant response rating, Crabgrass, Large ([8]; Postemergence, 62 g ai/ha): 100
